tested on: HIV-1 IIIB; assay: HOS HIV-1 infectivity assay; assay type: cell-based; details: Human immunodeficiency virus 1, IIIB; as determined by the infectivity assay; strain not stated in Table 2; read-out: Activity Level
In short: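 Luminescence served as read-out: Steady-Glo luciferase for infected wells, CellTiter-Glo for virus-free wells assessing cytotoxicity. Reporter HOS cells (hCXCR4/hCCR5/hCD4, LTR-luciferase) were preincubated with compound for 1 h, infected with PBL-propagated virus, and cultured 96 h at 37 °C.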

Compound | IC50 [µM]
CN(Cc1nc2ccccc2n1CCc1ccccn1)C1CCCc2cccnc21 (centres unmarked) [Example 37, N-methyl-N-([1-[2-(2-pyridinyl)ethyl]-1H-benzimidazol-2-yl]methyl)-5,6,7,8-tetrahydro-8-quinolinamine] | 0.1 to 0.5
CN(C)/C(=N\C#N)N1CCC[C@H](Cn2c(CN(C)[C@H]3CCCc4cccnc43)nc3ccccc32)C1 [Example 92, (3R)—N′-Cyano-N,N-dimethyl-3-{[2-({methyl[(8S)-5,6,7,8-tetrahydro-8-quinolinyl]amino}methyl)-1H-benzimidazol-1-yl]methyl}-1-piperidinecarboximidamide] | 0.1 to 0.5
CN(Cc1nc2ccccc2n1CC(=O)NCCCN)C1CCCc2cccnc21 (centres unmarked) [Example 30, N-(3-Aminopropyl)-2-(2-{[methyl(5,6,7,8-tetrahydro-8-quinolinyl)amino]methyl}-1H-benzimidazol-1-yl)acetamide] | 0.1 to 0.5
CN(Cc1nc2ccccc2n1CCc1cccnc1)C1CCCc2cccnc21 (centres unmarked) [Example 36] | 0.1 to 0.5
CC(C)CCN1CCC[C@@H](Cn2c(CN(C)[C@@H]3CCCc4cccnc43)nc3ccccc32)C1 [Example 78, (8R)—N-Methyl-N-[(1-{[(3R)-1-(3-methylbutyl)-3-piperidinyl]methyl}-1H-benzimidazol-2-yl)methyl]-5,6,7,8-tetrahydro-8-quinolinamine] | 0.1 to 0.5

Next, values leading:

IC50 [µM] | Compound
< 0.1 | CN(Cc1nc2ccccc2n1C[C@@H]1CCCN(C(=N)N)C1)[C@H]1CCCc2cccnc21 [Example 87, (3S)-3-{[2-({Methyl[(8S)-5,6,7,8-tetrahydro-8-quinolinyl]amino}methyl)-1H-benzimidazol-1-yl]methyl}-1-piperidinecarboximidamide]
< 0.1 | CN(Cc1nc2ccccc2n1C1CCNCC1)C1CCCc2cccnc21 (centres unmarked) [Example 11h, N-Methyl-N-{[1-(4-piperidinyl)-1H-benzimidazol-2-yl]methyl}-5,6,7,8-tetrahydro-8-quinolinamine]
0.1 to 0.5 | CN1CCC[C@H](Cn2c(CN(C)[C@@H]3CCCc4cccnc43)nc3ccccc32)C1 [Example 76, (8R)—N-Methyl-N-[(1-{[(3S)-1-methyl-3-piperidinyl]methyl}-1H-benzimidazol-2-yl)methyl]-5,6,7,8-tetrahydro-8-quinolinamine]

From patent publication US20080096861A1, “Chemical Compounds” (SMITHKLINE BEECHAM CORPORATION, priority 2004, published 2008)
